Measurements as given in paper PMC9120017, “Inhibition mechanism of the chloride channel TMEM16A by the pore blocker 1PBC” (Nature Communications, 2022).
Like-named read-outs stand apart in the source and are kept apart here.

Molecular target: T1, mouse TMEM16A mutant I512A (Mus musculus, UniProt Q8BHY3, I512A)
T1 construct: expressed in transfected cells; host or cells: HEK293T
T1 sequence (Q8BHY3 1-960 I512A): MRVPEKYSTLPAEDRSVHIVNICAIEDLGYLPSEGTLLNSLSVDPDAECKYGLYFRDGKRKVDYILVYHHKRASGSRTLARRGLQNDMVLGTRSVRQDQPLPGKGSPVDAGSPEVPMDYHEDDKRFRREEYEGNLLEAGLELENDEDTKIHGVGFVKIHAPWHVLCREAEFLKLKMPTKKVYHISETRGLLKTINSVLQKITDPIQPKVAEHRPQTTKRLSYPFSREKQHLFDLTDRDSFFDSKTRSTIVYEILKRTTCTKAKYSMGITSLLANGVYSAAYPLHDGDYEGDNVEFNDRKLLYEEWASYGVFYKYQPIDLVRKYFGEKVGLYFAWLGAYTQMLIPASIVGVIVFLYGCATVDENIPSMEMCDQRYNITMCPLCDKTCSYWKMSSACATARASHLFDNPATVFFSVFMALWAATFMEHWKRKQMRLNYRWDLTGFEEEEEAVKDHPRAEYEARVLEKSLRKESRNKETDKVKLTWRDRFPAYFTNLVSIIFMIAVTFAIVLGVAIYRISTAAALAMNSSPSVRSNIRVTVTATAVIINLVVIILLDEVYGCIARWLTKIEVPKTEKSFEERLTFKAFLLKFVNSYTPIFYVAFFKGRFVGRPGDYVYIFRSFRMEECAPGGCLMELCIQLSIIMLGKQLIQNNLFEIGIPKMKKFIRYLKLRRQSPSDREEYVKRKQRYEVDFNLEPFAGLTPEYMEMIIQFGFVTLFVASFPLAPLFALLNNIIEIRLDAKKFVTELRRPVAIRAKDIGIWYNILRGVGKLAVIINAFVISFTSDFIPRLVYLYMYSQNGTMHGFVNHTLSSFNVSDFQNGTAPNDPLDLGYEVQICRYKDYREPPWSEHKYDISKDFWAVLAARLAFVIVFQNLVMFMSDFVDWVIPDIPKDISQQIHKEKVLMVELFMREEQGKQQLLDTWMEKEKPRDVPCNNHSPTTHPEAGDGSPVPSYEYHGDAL
Assay: Inside-out patch recording of 1PBC block, mutant I512A
Format: cell-based
Conditions: for remaining activity at 30 µM: 1PBC 30; for remaining activity at 30 µM / remaining activity at 100 µM: read-out: fraction of unblocked current; for remaining activity at 100 µM: 1PBC 100
Description: HEK293T cells (ATCC CRL-1573) were maintained in Dulbecco’s modified Eagle’s medium (DMEM; Sigma-Aldrich) supplemented with 10 U ml^−1 penicillin, 0.1 mg ml^−1 streptomycin (Sigma-Aldrich), 2 mM L-glutamine (Sigma-Aldrich), and 10% FBS (Sigma-Aldrich) in a humidified atmosphere containing 5% CO2 at 37 °C. HEK293S GnTI^− cells (ATCC CRL-3022) were maintained in HyClone HyCell TransFx-H medium (GE Healthcare) supplemented with 10 U ml^−1 penicillin, 0.1 mg ml^−1 streptomycin, 4 mM L-glutamine, 0.15% poloxamer 188 (Sigma-Aldrich), and 1% FBS in an atmosphere containing 5% CO2 at 185 rpm at 37 °C. The ac splice variant of mouse TMEM16A (UniProt ID: Q8BHY3), mouse TMEM16B (UniProt ID: Q8CFW1), or mouse TMEM16F (UniProt ID: Q6P9J9) bearing a 3C cleavage site, a Venus YFP, a Myc tag, and a Streptavidin-binding peptide (SBP) downstream of the open reading frame in a modified pcDNA3.1 vector (Invitrogen) were used as described previously[21],[31]. Mutations were introduced using a modified QuikChange method[58] and were verified by sequencing.
HEK293T cells were transfected with 3–4 μg DNA per 6 cm Petri dish using the calcium phosphate co-precipitation method and were used within 24–96 h after transfection. Recordings were performed on inside-out patches excised from HEK293T cells expressing the construct of interest. Patch pipettes were pulled from borosilicate glass capillaries (O.D. 1.5 mm, I.D. 0.86 mm, Sutter Instrument) and were fire-polished with a microforge (Narishige) before use. Pipette resistance was typically 3–8 MΩ when filled with the recording solutions detailed below. Seal resistance was typically 4 GΩ or higher. Voltage-clamp recordings were made using Axopatch 200B, Digidata 1550, and Clampex 10.7 (Molecular Devices). Analog signals were filtered with the in-built 4-pole Bessel filter at 10 kHz and were digitized at 20 kHz. Solution exchange was achieved using a gravity-fed system through a theta glass pipette mounted on an ultra-fast piezo-driven stepper (Siskiyou). […] All recordings were performed at 20 °C.
A symmetrical ionic condition was used throughout. Stock solution with Ca^2+-EGTA contained 150 mM NaCl, 5.99 mM Ca(OH)2, 5 mM EGTA, and 10 mM HEPES at pH 7.40. Stock solution with EGTA contained 150 mM NaCl, 5 mM EGTA, and 10 mM HEPES at pH 7.40. Free Ca^2+ concentrations were adjusted by mixing the stock solutions at the required ratios calculated using the WEBMAXC program (http://web.stanford.edu/~cpatton/webmaxcS.htm). Patch pipettes were filled with the stock solution with Ca^2+-EGTA, which has a free Ca^2+ concentration of 1 mM. 1PBC (ChemBridge) stock was reconstituted in anhydrous DMSO (Sigma-Aldrich) at 100 mM and stored at −20 °C. Working solutions with 1PBC were prepared by serial dilution. Unless otherwise stated, experiments were performed at a saturating Ca^2+ concentration as shown in Supplementary Table 1 and the primary data were corrected for current rundown as described previously[21],[25].
Concentration-response relations, obtained from the ratio of the I-V plots before and after the application of the blocker, were fitted to the Hill equation,1 I/Imax=1/1+IC50/[blocker]^h where I/Imax is the normalized current responses, IC50 defines the concentration at which inhibition is at its half-maximum, and h is the Hill coefficient.

remaining activity at 30 µM (-60 mV): 62.3%
remaining activity at 30 µM (-80 mV): 65.6%
remaining activity at 30 µM (-100 mV): 68.2%
remaining activity at 30 µM (-120 mV): 70.8%
remaining activity at 30 µM (-140 mV): 72%
remaining activity at 100 µM (0 mV): 23.3%
remaining activity at 100 µM (20 mV): 19.1%
remaining activity at 100 µM (40 mV): 18.1%
remaining activity at 100 µM (60 mV): 15.6%
remaining activity at 100 µM (80 mV): 14%
remaining activity at 100 µM (100 mV): 13.1%
remaining activity at 100 µM (120 mV): 12.2%
remaining activity at 100 µM (140 mV): 12.1%
remaining activity at 100 µM (-20 mV): 27.5%
remaining activity at 100 µM (-40 mV): 29.4%
remaining activity at 100 µM (-60 mV): 32.8%
remaining activity at 100 µM (-80 mV): 36%
remaining activity at 100 µM (-100 mV): 39.7%
remaining activity at 100 µM (-120 mV): 42.4%
remaining activity at 100 µM (-140 mV): 45.3%
IC50 (20 mV, 2 µM Ca2+): 25.5 µM
IC50 (40 mV, 2 µM Ca2+): 21.8 µM
IC50 (60 mV, 2 µM Ca2+): 19 µM
log-fold IC50 (change of mutant vs WT) (80 mV): 0.8662
IC50 (80 mV, 2 µM Ca2+): 17 µM
IC50 (100 mV, 2 µM Ca2+): 15.9 µM
IC50 (120 mV, 2 µM Ca2+): 15.8 µM
IC50 (140 mV, 2 µM Ca2+): 16.6 µM
IC50 (-20 mV, 2 µM Ca2+): 37.1 µM
IC50 (-40 mV, 2 µM Ca2+): 42.9 µM
IC50 (-60 mV, 2 µM Ca2+): 50.1 µM
IC50 (-80 mV, 2 µM Ca2+): 57.9 µM
IC50 (-100 mV, 2 µM Ca2+): 66.1 µM
IC50 (-120 mV, 2 µM Ca2+): 73.6 µM
IC50 (-140 mV, 2 µM Ca2+): 80.9 µM
IC50 (I512A, V 0 mV): 30.7 µM
IC50 (I512A, V 20 mV): 25.5 µM
IC50 (I512A, V 40 mV): 21.8 µM
IC50 (I512A, V 60 mV): 19 µM
IC50 (I512A, V 80 mV): 17 µM
IC50 (I512A, V 100 mV): 15.9 µM
IC50 (I512A, V 120 mV): 15.8 µM
IC50 (I512A, V 140 mV): 16.6 µM
IC50 (I512A, V -20 mV): 37.1 µM
IC50 (I512A, V -40 mV): 42.9 µM
IC50 (I512A, V -60 mV): 50.1 µM
IC50 (I512A, V -80 mV): 57.9 µM
IC50 (I512A, V -100 mV): 66.1 µM
IC50 (I512A, V -120 mV): 73.6 µM
IC50 (I512A, V -140 mV): 80.9 µM
SMILES: N#Cc1c(C(F)(F)F)cc(O)n2c1nc1ccccc12 [1PBC]
